# Experimental data published in patent US4044043A, “Derivatives of 9-oxo-13-trans-prostenoic acid esters” (American Cyanamid Company, priority 1975, dated 1977).
# Read-outs that look alike come from different tables or passages of the source.
# What was measured:
# [1] = tested on: Trichophyton tonsurans NIH 662; experiment: agar-dilution streak-plate antimicrobial assay; assay type: cell-based; settings: NIH662, read-out: Minimal inhibitory conc. (3)
# Procedure, shortened: (§1)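 MIC (µg/ml) read visually as complete growth inhibition on streaked agar plates. Compound stock 2.5 mg/ml, two-fold serial dilutions, 1 ml into 9 ml nutrient agar; separate agar for bacteria vs fungi. Inoculum: overnight broth cultures; filamentous fungi as spores in saline.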
# [2] = tested on: Mycobacterium smegmatis ATCC 606; experiment: agar-dilution streak-plate antimicrobial assay; assay type: cell-based; settings: Mycolicibacterium smegmatis, ATCC606, read-out: Minimal inhibitory conc. (6)
# Procedure, shortened: as §1
# [3] = tested on: Trichophyton mentagrophytes E 11; experiment: agar-dilution streak-plate antimicrobial assay; assay type: cell-based; settings: E11, read-out: Minimal inhibitory conc. (4)
# Procedure, shortened: as §1
# Trichophyton rubrum E 97 = experiment: agar-dilution streak-plate antimicrobial assay; assay type: cell-based; settings: E97, read-out: Minimal inhibitory conc. (5)
# Procedure, shortened: as §1
# diastolic blood pressure = experiment: Prostaglandin-like hypotensive activity in anesthetized rats (minimal dose for about 10 mm. decrease in diastolic blood pressure); assay type: in vivo, Male Wistar strain rats; settings: Rattus norvegicus; intravenous; decrease of about 10 mm. in diastolic blood pressure
# Procedure, shortened: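 Male Wistar rats (~250 g), pentobarbital 30 mg./kg. i.v. and hexamethonium 2 mg./kg. i.v., iliac artery cannulated for blood pressure. Compounds in saline-Tween 80 given i.v. at 0.1–10.0 mg./kg.; value is the minimal dose giving ~10 mm. drop in diastolic pressure.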
# gastric acid secretion [4] = experiment: Inhibition of Gastric Acid Secretion (Pylorous-Ligated Rat), Shay rat procedure; assay type: in vivo, rats (male, CFE strain); settings: read-out: % Inhibition of Control Gastric Acid Secretion; for inhibition in vivo at 100 mg/kg: 100 mg./kg. intraduodenal
# Procedure, shortened: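 Male CFE rats were fasted 48 h, then pylorus-ligated under ether. Gastric contents were titrated with 0.02N or 0.04N NaOH to pH 8.4 for acid output, and ≥20% inhibition counted as active.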
# [5] = tested on: Streptococcus pyogenes C 203; experiment: agar-dilution streak-plate antimicrobial assay; assay type: cell-based; settings: C203, read-out: Minimal inhibitory conc. (8)
# Procedure, shortened: as §1
# gastric acid secretion [6] = experiment: Inhibition of basal Gastric Acid Secretion (Acute Gastric Fistula Rat); assay type: in vivo, Female Sprague-Dawley rats; settings: 10 mg./kg. intraduodenal
# Protocol: Inhibition of basal gastric acid secretion was determined in the acute gastric fistula rat as follows. Female Sprague-Dawley rats (Charles River Laboratories) weighing 140-160 grams are fasted in individual cages for 18-24 hours. The rats are then lightly anesthetized with ether and their front teeth extracted to avoid destruction of the plastic cannula. A midline incision is then made and the stomach and duodenum exposed. A flanged polyvinyl tube is inserted into the fundic portion of the stomach and secured with a purse string suture line using 4-0 Mersilene. The rat is then dosed by injection of the compound into the duodenum (1.0 ml. per 100 gram body weight). After dosing, the abdominal wall and skin are closed using metal wound clips. The rat is replaced in a cage containing a longitudinal slit to allow the polyvinyl tube to hang freely. An 8 ml. plastic collecting tube is attached to the flanged cannula and hangs freely below the cage. The first 30 minute sample is discarded designating this time as zero. The collecting tube is attached again and samples removed at the end of 60 and 120 minutes. Those samples are referred to as "A" and "B" in the table. The hourly samples are then transferred to a 15 ml. centrifuge tube and centrifuged for 5-10 minutes. Total and sediment volume are then recorded with the supernatant volume being used as volume of secretion. A 1 ml. or less aliquot is then removed and placed in a 50 ml. beaker containing 10 ml. of distilled water. This sample is then titrated using 0.01N NaOH to pH 7.0 using a Beckman zeromatic pH meter. Volume, titratable acidity (meq/L) and total acid output (μ eq/hour) are recorded. Percent inhibition is determined by comparison with the appropriate control. Groups of three rats were used. All compounds are administered in vehicle (0.5% methocel, 0.4% Tween 80, saline) at a constant volume of 1 ml./100 gram rat. Samples were sonicated with care to prevent overheating.
# [7] = tested on: bronchospasms elicited by histamine; experiment: Bronchodilator Activity (Konzett Assay) against histamine; assay type: in vivo, guinea pigs; settings: Cavia porcellus; three logarithmic cumulative intravenous doses
# Protocol: (§2) Bronchodilator activity was determined in guinea pigs against bronchospasms elicited by intravenous injections of 5-hydroxytryptamine, histamine or acetylcholine by the Konzett procedure. [See J. Lulling, P. Lievens, F. El Sayed and J. Prignot, Arzeneimittel-Forschung, 18, 995 (1968)]. In Table IIIC which follows bronchodilator activity for representative compounds of this invention against one or more of the three spasmogenic agents is expressed as an ED50 determined from the results obtained with three logarithmic cumulative intravenous doses.
# [8] = tested on: dl-PGE1-induced contraction of gerbil colon; experiment: Inhibition of dl-PGE1-Induced Contraction of Gerbil Colon (prostaglandin antagonist action); assay type: cell-based, gerbils (Meriones unguiculatus); settings: Meriones unguiculatus, 1 min; sub-maximal challenge, 20 ng./ml. dl-PGE1; 50% inhibition of maximum response; read-out: ID50 vs. 20 ng. of PGE1/ml.
# Procedure, shortened: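 Ascending colon from male gerbils, held in De Jalon's solution at 37 °C under 95% O2/5% CO2 with 0.5 g resting tension, contraction recorded isometrically. 1 min compound exposure, then 1 min dl-PGE1 at 200 ng/ml (maximal) or 20 ng/ml (sub-maximal). Approximate ID50 taken from a concentration series against the preceding agonist-only cycle.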
# [9] = tested on: bronchospasms elicited by acetylcholine; experiment: Bronchodilator Activity (Konzett Assay) against acetylcholine; assay type: in vivo, guinea pigs; settings: Cavia porcellus; three logarithmic cumulative intravenous doses
# Protocol: as §2
# [10] = tested on: bronchospasms elicited by 5-hydroxytryptamine; experiment: Bronchodilator Activity (Konzett Assay) against 5-hydroxytryptamine; assay type: in vivo, guinea pigs; settings: Cavia porcellus; three logarithmic cumulative intravenous doses
# Protocol: as §2
# [11] = tested on: Microsporum gypseum ATCC 14683; experiment: agar-dilution streak-plate antimicrobial assay; assay type: cell-based; settings: Nannizzia gypsea, ATCC14683, read-out: Minimal inhibitory conc. (2)
# Procedure, shortened: as §1
# [12] = 2 h, B: 120 minute collection, read-out: % Inhibition Total Acid Output
# [13] = 2 h, B: 120 minute collection, read-out: % Inhibition Total Acidity
SMILES,MIC [1],MIC [2],MIC [3],minimal effective dose (diastolic blood pressure),MIC [5],inhibition in vivo at 10 mg/kg (gastric acid secretion [6]; [12]),inhibition in vivo at 10 mg/kg (gastric acid secretion [6]; [13]),IC50 [8],further results
CCOC(=O)CCCCCC[C@H]1C(=O)CC[C@@H]1/C=C/CCCCCCCl (relative stereo) [ethyl 20-chloro-9-oxo-13-trans-prostenoate],250 µg/mL,250 µg/mL,250 µg/mL,0.5 mg/kg,–,–,–,–,MIC (Trichophyton rubrum E 97): 250 µg/mL
"CCOC(=O)CCCCCC[C@H]1C(=O)CC[C@@H]1/C=C/CCCCl (relative stereo) [ethyl 20-chloro-9-oxo-17,18,19-trinor-13-trans-prostenoate]",–,250 µg/mL,250 µg/mL,0.2 to 1 mg/kg,–,–,–,–,inhibition in vivo at 100 mg/kg (gastric acid secretion [4]): 61%
"CCOC(=O)CCCCCC[C@H]1C(=O)CC[C@@H]1/C=C/CCCI (relative stereo) [ethyl 20-iodo-9-oxo-17,18,19-trinor-13-trans-prostenoate]",250 µg/mL,62 µg/mL,250 µg/mL,–,–,–,–,–,–
CCCCCC/C=C/[C@@H]1CCC(=O)[C@H]1CCCCCCC(=O)OCCCC (relative stereo) [n-butyl 9-oxo-13-trans-prostenoate],–,250 µg/mL,–,2 mg/kg,250 µg/mL,–,–,–,inhibition in vivo at 50 mg/kg (gastric acid secretion [4]; 50 mg./kg. intraduodenal): 20%
CCCCCCC=CC1CCC(C)(O)C1CCCCCCC(=O)O (stereo not drawn) [9-Hydroxy-9-methyl-13-trans-prostenoic acid],–,–,–,–,–,31%,16%,2 to 5 µg/mL,ED50 [7]: 1.18 mg/kg; ED50 [9]: 4.32 mg/kg; ED50 [10]: 0.756 mg/kg
"O=C(O)CCCCCCC1C(O)CCC1C=CCCCCl (stereo not drawn) [9-hydroxy-20-chloro-17,18,19-trinor-13-trans-prostenoic acid]",250 µg/mL,–,250 µg/mL,2 mg/kg,62 µg/mL,–,–,–,MIC [11]: 250 µg/mL; ED50 [7]: > 10 mg/kg; ED50 [9]: > 10 mg/kg; ED50 [10]: 17.9 mg/kg
CCCCCCC=CC1CCC(=O)C1CCCCCC(C(=O)O)c1ccccc1 (stereo not drawn) [9-oxo-2-phenyl-13-trans-prostenoic acid],–,–,–,–,–,44%,26%,5 to 7 µg/mL,–
"CCCCCC/C=C/[C@H]1CCC(O)[C@@H]1CCCCC(=O)OCC (stereo partly drawn) [ethyl 9-hydroxy-6,7-dinor-13-trans-prostenoate]",–,6 µg/mL,–,–,13 µg/mL,–,–,–,–
"CCCCCC/C=C/[C@H]1CCC(=O)[C@@H]1CCCCCC(CC)C(=O)OCC (stereo partly drawn) [ethyl 9-oxo-2-ethyl-13-trans-prostenoate, ethyl 2-ethyl-9-oxo-13-trans-prostenoate]",–,–,–,–,–,48%,49%,10 to 25 µg/mL,"inhibition in vivo at 10 mg/kg (gastric acid secretion [6]; 1 h, A: 60 minute collection, read-out: % Inhibition Total Acid Output): 56%; inhibition in vivo at 10 mg/kg (gastric acid secretion [6]; 1 h, A: 60 minute collection, read-out: % Inhibition Total Acidity): 66%; inhibition in vivo at 100 mg/kg (gastric acid secretion [4]): 42%"
CCOC(=O)CCCCCC[C@H]1C(=O)CC[C@@H]1/C=C/CCC[S+]([O-])CC (stereo partly drawn) [ethyl 9-oxo-18-oxythia-13-trans-prostenoate],250 µg/mL,250 µg/mL,250 µg/mL,2 mg/kg,–,–,–,–,MIC (Trichophyton rubrum E 97): 250 µg/mL
